Series [1] concerns the target T1, NPC1-like intracellular cholesterol transporter 1 (Homo sapiens) (UniProt Q9UHC9).
T1 sequence (whole entry): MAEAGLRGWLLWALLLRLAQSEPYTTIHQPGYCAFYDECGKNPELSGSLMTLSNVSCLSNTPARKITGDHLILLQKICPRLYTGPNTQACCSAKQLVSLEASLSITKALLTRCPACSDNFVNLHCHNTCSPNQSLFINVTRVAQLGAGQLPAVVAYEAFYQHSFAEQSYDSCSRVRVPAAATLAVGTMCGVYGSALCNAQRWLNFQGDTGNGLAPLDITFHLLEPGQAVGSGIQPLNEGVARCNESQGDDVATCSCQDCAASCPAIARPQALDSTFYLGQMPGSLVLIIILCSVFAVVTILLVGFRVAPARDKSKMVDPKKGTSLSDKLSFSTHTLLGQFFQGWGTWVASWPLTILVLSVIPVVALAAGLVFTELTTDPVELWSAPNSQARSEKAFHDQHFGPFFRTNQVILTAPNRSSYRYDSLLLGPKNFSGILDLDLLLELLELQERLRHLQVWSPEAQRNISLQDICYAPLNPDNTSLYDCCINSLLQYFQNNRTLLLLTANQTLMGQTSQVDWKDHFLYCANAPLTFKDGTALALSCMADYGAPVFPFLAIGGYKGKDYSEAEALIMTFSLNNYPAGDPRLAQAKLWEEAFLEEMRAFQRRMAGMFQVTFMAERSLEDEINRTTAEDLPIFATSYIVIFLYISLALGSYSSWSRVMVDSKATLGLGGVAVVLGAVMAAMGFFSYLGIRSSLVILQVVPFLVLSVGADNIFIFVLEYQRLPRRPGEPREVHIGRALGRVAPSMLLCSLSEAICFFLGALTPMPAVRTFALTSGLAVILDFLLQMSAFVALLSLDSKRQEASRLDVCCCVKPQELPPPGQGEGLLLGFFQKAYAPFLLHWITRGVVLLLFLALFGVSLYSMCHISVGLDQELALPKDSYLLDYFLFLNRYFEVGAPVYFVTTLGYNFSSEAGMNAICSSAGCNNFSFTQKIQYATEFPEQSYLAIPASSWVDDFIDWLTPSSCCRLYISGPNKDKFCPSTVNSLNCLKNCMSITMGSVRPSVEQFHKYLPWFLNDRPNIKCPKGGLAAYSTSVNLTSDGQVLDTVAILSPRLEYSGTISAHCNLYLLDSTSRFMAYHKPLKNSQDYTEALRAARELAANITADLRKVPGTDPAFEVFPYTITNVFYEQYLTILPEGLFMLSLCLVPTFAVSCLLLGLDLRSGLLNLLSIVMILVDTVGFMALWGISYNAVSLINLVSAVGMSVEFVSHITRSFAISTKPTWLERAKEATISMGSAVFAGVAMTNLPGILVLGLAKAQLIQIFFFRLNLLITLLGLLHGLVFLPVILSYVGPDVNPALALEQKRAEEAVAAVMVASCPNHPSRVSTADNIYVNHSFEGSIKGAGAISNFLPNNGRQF
Kind of series: Inhibition of NPC1L1 in human Caco2 cells assessed as decrease in cholesterol uptake at 100 uM preincubated for 24 hrs followed by stigmosterol substrate addition measured after 24 hrs by HPLC method. In kind it is cell-based.

Series [2] can be described thus: Octanol-water partition coefficient, log P of the compound measured after 4 hrs by HPLC analysis. In kind it is physicochemical.
The nature of series [3]: Cytotoxicity against mouse RAW264.7 cells after 48 hrs by MTT assay. Type of series: cell-based. The conditions noted are these: read-out: LC50.
Series [4] in a line: Cytotoxicity against HEK293 cells after 48 hrs by MTT assay. In kind it is cell-based. Particulars: human, read-out: LC50.
The target in series [5] is T1, NPC1-like intracellular cholesterol transporter 1 (Homo sapiens). As to the kind of experiment: Inhibition of NPC1L1 in human Caco2 cells assessed as decrease in cholesterol uptake at 100 uM preincubated for 24 hrs followed by stigmosterol substrate addition measured after 24 hrs by HPLC method relative to control. Type of series: cell-based.
For series [6], the target named is NPC1-like intracellular cholesterol transporter 1 (Mus musculus) (UniProt Q6T3U4). Kind of series: Inhibition of NPC1L1-mediated cholesterol-methyl-beta-cyclodextrin accumulation in mouse RAW264.7 cells assessed as decrease in foam cell formation by measuring decrease in LDH level at 30 uM relative to control. Type of series: cell-based. Also on record: scale not given: the % may be the effect or the level left.
Sequence of NPC1-like intracellular cholesterol transporter 1 (Mus musculus) (Q6T3U4 21-1333 limits assumed): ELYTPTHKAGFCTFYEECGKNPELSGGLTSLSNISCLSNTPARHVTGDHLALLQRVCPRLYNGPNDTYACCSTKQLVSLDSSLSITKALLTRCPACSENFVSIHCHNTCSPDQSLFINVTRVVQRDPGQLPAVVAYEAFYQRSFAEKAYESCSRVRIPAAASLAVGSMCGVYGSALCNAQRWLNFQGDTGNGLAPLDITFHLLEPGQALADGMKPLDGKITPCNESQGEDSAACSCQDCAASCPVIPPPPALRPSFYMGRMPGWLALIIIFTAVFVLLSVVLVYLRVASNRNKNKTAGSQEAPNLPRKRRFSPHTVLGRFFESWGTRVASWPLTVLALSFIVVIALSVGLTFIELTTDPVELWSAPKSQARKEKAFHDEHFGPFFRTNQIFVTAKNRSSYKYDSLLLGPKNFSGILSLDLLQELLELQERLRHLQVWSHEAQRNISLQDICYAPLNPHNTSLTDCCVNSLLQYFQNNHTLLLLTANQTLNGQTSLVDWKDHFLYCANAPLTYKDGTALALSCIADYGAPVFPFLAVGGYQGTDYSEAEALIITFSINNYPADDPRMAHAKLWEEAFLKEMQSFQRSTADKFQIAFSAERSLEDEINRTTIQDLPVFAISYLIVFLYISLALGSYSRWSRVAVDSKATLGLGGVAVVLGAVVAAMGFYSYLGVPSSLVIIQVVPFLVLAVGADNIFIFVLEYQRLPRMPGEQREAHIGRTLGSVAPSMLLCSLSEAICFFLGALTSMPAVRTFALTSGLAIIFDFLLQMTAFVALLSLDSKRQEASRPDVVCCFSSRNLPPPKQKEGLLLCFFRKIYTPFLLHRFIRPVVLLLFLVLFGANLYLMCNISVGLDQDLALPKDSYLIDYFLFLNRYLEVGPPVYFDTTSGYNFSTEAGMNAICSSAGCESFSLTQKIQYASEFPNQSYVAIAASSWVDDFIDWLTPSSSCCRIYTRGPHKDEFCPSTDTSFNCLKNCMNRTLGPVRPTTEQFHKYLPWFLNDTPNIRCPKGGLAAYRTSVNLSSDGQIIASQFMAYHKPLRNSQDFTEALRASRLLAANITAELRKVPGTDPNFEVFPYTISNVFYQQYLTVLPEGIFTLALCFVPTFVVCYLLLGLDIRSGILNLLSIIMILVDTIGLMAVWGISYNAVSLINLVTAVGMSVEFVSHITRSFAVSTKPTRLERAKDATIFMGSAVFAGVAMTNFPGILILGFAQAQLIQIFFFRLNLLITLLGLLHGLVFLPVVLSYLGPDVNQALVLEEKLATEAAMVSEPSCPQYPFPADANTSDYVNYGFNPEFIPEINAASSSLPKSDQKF

For series [7] the target is unchanged. Kind of series: Inhibition of NPC1L1-mediated cholesterol-methyl-beta-cyclodextrin accumulation in mouse RAW264.7 cells assessed as decrease in foam cell formation by measuring decrease in MDA level. Type of series: cell-based.
Series [8] has the same target. Kind of series: Inhibition of NPC1L1-mediated cholesterol-methyl-beta-cyclodextrin accumulation in mouse RAW264.7 cells assessed as decrease in foam cell formation by measuring decrease in MDA level at 30 uM relative to control. Also on record: scale not given: the % may be the effect or the level left. In kind it is cell-based.
Series [9] has the same target. Kind of series: Inhibition of NPC1L1-mediated cholesterol-methyl-beta-cyclodextrin accumulation in mouse RAW264.7 cells incubated for 72 hrs by Oil Red O/hematoxyline staining based microscopic analysis. In kind it is cell-based.
For series [10] the target is unchanged. As to the kind of experiment: Inhibition of NPC1L1 in mouse RAW264.7 cells assessed as decrease in choleserol-D7 absorption at 30 uM after 72 hrs by LC-MS/MS analysis relative to control. In kind it is cell-based.
Series [11] relates to RAW264.7. As to the kind of experiment: Antiinflammatory activity against mouse RAW264.7 cells assessed as decrease in cholesterol-methyl-beta-cyclodextrin-induced ROS level at 30 uM relative to control. Type of series: functional. Set-up: scale not given: the % may be the effect or the level left.
The target of series [12] is NPC1-like intracellular cholesterol transporter 1 (Mus musculus) (UniProt Q6T3U4). As to the kind of experiment: Inhibition of NPC1L1-mediated cholesterol-methyl-beta-cyclodextrin accumulation in mouse RAW264.7 cells assessed as decrease in foam cell formation by measuring decrease in LDH level. Type of series: cell-based.
The subject of series [13] is RAW264.7. Kind of series: Antiinflammatory activity against mouse RAW264.7 cells assessed as decrease in cholesterol-methyl-beta-cyclodextrin-induced TNFalpha release. In kind it is functional, cell-based.
Series [14] relates to RAW264.7. As to the kind of experiment: Antiinflammatory activity against mouse RAW264.7 cells assessed as decrease in cholesterol-methyl-beta-cyclodextrin-induced ROS level. In kind it is functional, cell-based.
The test system of series [15] is RAW264.7. Kind of series: Antiinflammatory activity against mouse RAW264.7 cells assessed as decrease in cholesterol-methyl-beta-cyclodextrin-induced TNFalpha release at 30 uM relative to control. Also on record: scale not given: the % may be the effect or the level left. In kind it is functional.

Calls of active or inactive are those of the source. The rule behind the calls is not given here.

Consider `CCc1ccc(S(=O)(=O)NCCCN2C(=O)C(c3ccc(O)cc3)=C(c3ccc(F)cc3)C2=O)cc1`, for which the inhibition result in series [1] is “Active”. In addition, the logP at 4 h in [2] lay in the range of 2 to 4. In addition, the CC50 at 48 h was determined as 17.2 µM in series [3] and 11.5 µM in [4].

As to `O=C1C(c2ccc(F)cc2)=C(c2ccc(OCCS(=O)(=O)O)cc2)C(=O)N1CCC(O)(c1ccccc1)c1ccccc1`, the inhibition entry in [1] was “inactive”.

Consider `CCN(CC)CCCOc1ccc(C2=C(c3ccc(F)cc3)C(=O)N(CCC(O)(c3ccccc3)c3ccccc3)C2=O)cc1`, for which, in series [2], the logP at 4 h was > 5. Also, the inhibition in [5] is 69.6 to 72.6%. Further, the figures for the CC50 at 48 h in series [3] and in series [4] were 37.6 µM and 32.7 µM, respectively.

Regarding `O=C1C(c2ccc(O)cc2)=C(c2ccc(F)cc2)C(=O)N1CCCNS(=O)(=O)c1ccc(OC(F)(F)F)cc1`, the inhibition result in series [1] is “Active”. This compound also displayed a logP at 4 h in [2] of 2 to 4. Besides, the figures for the CC50 at 48 h in [3] and in series [4] were 41.2 µM and 24.8 µM, respectively.

`Cc1ccc(S(=O)(=O)NCCCCN2C(=O)C(c3ccc(F)cc3)=C(c3ccc(OCC(=O)NCC(=O)NCC(=O)O)cc3)C2=O)cc1`: the inhibition result in [1] is “Active”. The same compound yielded a logP at 4 h in series [2] of 2 to 4. Besides, the CC50 at 48 h in series [3] and in series [4] was > 100 µM each time.

For `CCN(CC)CCCCOc1ccc(C2=C(c3ccc(F)cc3)C(=O)N(CCC(O)(c3ccccc3)c3ccccc3)C2=O)cc1`, the logP at 4 h in [2] was > 5. Besides, in series [5], the inhibition was in the range of 69.6 to 72.6%. For the same compound, the CC50 at 48 h was determined as 43.2 µM in [3] and 47.3 µM in [4].

On to `O=C1C(c2ccc(O)cc2)=C(c2ccc(F)cc2)C(=O)N1CCC(O)(c1ccccc1)c1ccccc1`, for which the Activity in series [6] was 33.3%; in [8], 79.6%; with RAW264.7 [11], 51%; in the series on RAW264.7 [13], “Dose-dependent effect”; in the series on RAW264.7 [14], “Dose-dependent effect”; in the series with RAW264.7 [15], 35.1%. Also, the inhibition result is “Dose-dependent effect” in series [7], “Dose-dependent effect” in series [9], 67.9% in series [10] and “Dose-dependent effect” in [12]. In addition, the inhibition result in series [1] was “Active”. In series [2], this compound registered a logP at 4 h of 2 to 4. For the same compound, the CC50 at 48 h in series [3] and in series [4] was > 100 µM in each case.

For `O=C1[C@H](CC[C@H](O)c2ccc(F)cc2)[C@@H](c2ccc(O)cc2)N1c1ccc(F)cc1` [EZETIMIBE], the Activity in [6] amounted to 36.4%; in series [8] it was 76.3%; in the series with RAW264.7 [11], 46.5%; in the series with RAW264.7 [15], 30.9%. Moreover, the inhibition result in series [9] was “Dose-dependent effect”; in series [10], 80.3%; in series [5], 51.3%. For the same compound, the values for the CC50 at 48 h in [3] and in [4] were 44.2 µM and 57.6 µM, respectively.

Regarding `CCc1ccc(S(=O)(=O)NCCN2C(=O)C(c3ccc(O)cc3)=C(c3ccc(F)cc3)C2=O)cc1`, the inhibition result in series [1] is “Active”. In series [2], the logP at 4 h was 2 to 4. Moreover, the CC50 at 48 h was > 100 µM in series [3] and 80.4 µM in [4].

On to `O=C1C(c2ccc(O)cc2)=C(c2ccc(F)cc2)C(=O)N1CCCNS(=O)(=O)c1ccc(C(F)(F)F)cc1`, for which the inhibition entry in series [1] is “Active”. The same compound displayed a logP at 4 h in [2] of 2 to 4. Further, the figures for the CC50 at 48 h in [3] and in series [4] were 34.3 µM and 19.7 µM, respectively.

Regarding `CCN(CC)CCOc1ccc(C2=C(c3ccc(F)cc3)C(=O)N(CCC(O)(c3ccccc3)c3ccccc3)C2=O)cc1`, in series [2], the logP at 4 h is > 5. Further, in [5], the inhibition fell in the range of 69.6 to 72.6%. In addition, the CC50 at 48 h was determined as 32.7 µM in [3] and 31.5 µM in series [4].

In the case of `CCc1ccc(S(=O)(=O)NCCCCN2C(=O)C(c3ccc(F)cc3)=C(c3ccc(OCC(=O)NCC(=O)NCC(=O)O)cc3)C2=O)cc1`, the inhibition entry in [1] was “Active”. Besides, in [2], the logP at 4 h was in the range of 2 to 4. The CC50 at 48 h in [3] and in series [4] was > 100 µM each time.

Consider `O=C1C(c2ccc(F)cc2)=C(c2ccc(OCCCCS(=O)(=O)O)cc2)C(=O)N1CCC(O)(c1ccccc1)c1ccccc1`, for which the inhibition result in [1] was “inactive”.

For `O=C1C(c2ccc(F)cc2)=C(c2ccc(OCCCS(=O)(=O)O)cc2)C(=O)N1CCC(O)(c1ccccc1)c1ccccc1`, the inhibition result in [1] was “inactive”.

Source of the values: ChEMBL document CHEMBL4219107, “Synthesis and evaluation of 1H-pyrrole-2,5-dione derivatives as cholesterol absorption inhibitors for suppressing the formation of foam cells and inflammatory response” (Bioorg Med Chem, 2018).
